Results on one molecule are retold here after patent publication US20080261314A1, “FLUORESCENT PROBE FOR ZINC” (DAIICHI PURE CHEMICALS CO., LTD., priority 2001, published 2008).

Holding throughout (type): physicochemical
Data set [1] is described as follows: Spectrum measurement (UV, excitation and fluorescence spectra) on addition of ZnSO4. The method, then: To a 15 μM solution of Compound (14) in 100 mM HEPES buffer (pH 7.4), ZnSO4 was added up to 15 μM. Spectra of the solution were measured under the measurement condition described in Example 2. The same spectral measurement was also conducted for Compound (11) as a reference. In FIG. 3, a) UV spectrum change of Compound (14), b) excitation spectra of Compound (14) with fluorescence wavelengths fixed at 495 nm, c) UV spectrum change of Compound (11), and d) excitation spectra of Compound (11) with fluorescence wavelengths fixed at 530 nm are shown. Further, to a 10 μM solution of Compound (15) in 100 mM HEPES buffer (pH 7.4), ZnSO4 was added up to 200 μM. Spectra were measured under the condition described in Example 2.

Data set [2] can be described thus: Fluorescence characteristics (excitation and emission maxima) before and after addition of zinc ions. On the procedure:
Fluorescence characteristics of Compound (11) were studied. Compound (11) was dissolved in 100 mM HEPES buffer (pH 7.4, containing 0.4% DMSO as co-solvent) up to 20 μM and measured excitation spectra.
Hitachi F-4500 fluorescence measurement apparatus
Scanning rate: 240 nm/min
Photomultiplier voltage: 950 V
Measurement temperature: 25° C.
(§1) Studies of fluorescence characteristics and the ratio measurements of Compound (14) and (15) were conducted in the same manners as those described in Example 2 and Example 3. Fluorescent characteristics of Compound (14) and (15) before and after addition of zinc ions (20 μM ZnSO4) are shown in the following Table 2.

A short description of data set [3]: Ratio measurement on addition of ions other than zinc ion (selectivity). The method, then: (§2) To a 20 μM solution of Compound (11) in 100 mM HEPES buffer (pH 7.4), ZnSO4 was added up to 20 μM. Change of the ratio of fluorescence intensities at excitation wavelengths at 335 nm and 354 nm with the fluorescence wavelengths fixed at 530 nm are shown (FIG. 2 (A)). To a 20 μM solution of Compound (11) in 100 mM HEPES buffer (pH 7.4), sodium ions, calcium ions, potassium ions, or magnesium ions were added up to 400 μM. Changes of the ratio of fluorescence intensities at excitation wavelengths at 335 nm and 354 nm with the fluorescence wavelengths fixed at 530 nm are shown (FIG. 2 (B)).
as §1

A short description of data set [4]: Ratio measurement of fluorescence intensities at two excitation wavelengths on addition of zinc ions. The settings on record: excitation 335 nm and 354 nm, fluorescence 530 nm; 20 μM compound, ZnSO4 up to 20 μM, HEPES pH 7.4. On the procedure: as §2, §1
The mark [5] stands for this setting: 20 μM compound, 20 μM ZnSO4, 100 mM HEPES buffer pH 7.4, 25° C.
The mark [6] stands for this setting: 20 μM compound, 100 mM HEPES buffer pH 7.4, 0.4% DMSO, 25° C.

As for `COc1cc2cc(-c3ccc(C(=O)O)cc3)oc2cc1NCCN(Cc1ccccn1)Cc1ccccn1` [Compound (11)], the “Change of absorbance at 335 nm on addition of zinc ions” value in data set [1] (15 μM compound, ZnSO4 up to 15 μM, HEPES pH 7.4) is reported as “increases”. Also, the “Change of absorbance at the long-wavelength maximum on addition of zinc ions” value in data set [1] (365 nm for Compound (14), 354 nm for Compound (11), 15 μM compound, ZnSO4 up to 15 μM) is reported as “decreases”. The “Change of fluorescence excited at the long-wavelength maximum on addition of zinc ions” value in data set [1] (excited at 365 nm (Compound (14), emission 495 nm) or 354 nm (Compound (11), emission 530 nm)) is given as “decreases”. In data set [2] (setting [5]), the “Em(nm), after addition of Zn2+” value amounted to 528 nm and the “Ex(nm), after addition of Zn2+” value is 335 nm. In data set [2] (setting [6]), the “Em(nm), before addition of Zn2+” value is recorded as 532 nm and the “Ex(nm), before addition of Zn2+” value was determined as 354 nm. Moreover, the “Wavelength shift of the peak of the excitation spectrum on coordination to a zinc ion” value in data set [2] (blue shift, depending on concentration of zinc ions) is “about 20 nm”. In addition, the “Change of the ratio of fluorescence intensities on addition of sodium, calcium, potassium or magnesium ions” value in data set [3] (ions added up to 400 μM, 20 μM compound, 100 mM HEPES pH 7.4) is reported as “no change of the ratio was observed”. For the same molecule, the “Selectivity to zinc ions” value in data set [3] (versus sodium, calcium, potassium, magnesium ions) is recorded as “high selectivity to zinc ions”. Moreover, the “Change of the ratio of fluorescence intensities on addition of zinc ions” value in data set [4] is “changed concentration dependent manner of zinc ions”.
